Experiments:
Assay in all cases: relative viability (nuclei count vs DMSO), 5 days (fraction); higher = more cells survive
[1] = compound: CCn1c(-c2nonc2N)nc2cnc(Oc3cccc(NC(=O)c4ccc(OCCN5CCOCC5)cc4)c3)cc21 + CC(=O)c1c(C)c2cnc(Nc3ccc(N4CCNCC4)cn3)nc2n(C2CCCC2)c1=O [Palbociclib] (partner 0.5 µM)
In short: (§1)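 Lung cancer cell lines in 1536-well plates were dosed by pin tool the day after seeding, either with one drug alone or with a fixed anchor-drug dose plus five library-drug doses (not always all listed) in √10 steps. After 5 days, cells were fixed and their nuclei stained in one step (final 0.05% Triton X-100, 1% formaldehyde, 1 ug/ml Hoechst), then counted on 4× images. Relative viability is the nuclei count in treated wells divided by that in vehicle wells. Values are medians of duplicate plates.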

[2] = compound: CCn1c(-c2nonc2N)nc2cnc(Oc3cccc(NC(=O)c4ccc(OCCN5CCOCC5)cc4)c3)cc21 + C[C@]1(O)C[C@@H](c2nc(-c3ccc4ccc(-c5ccccc5)nc4c3)c3c(N)nccn32)C1 [Linsitinib] (partner 1 µM)
In short: as §1

[3] = compound: CCn1c(-c2nonc2N)nc2cnc(Oc3cccc(NC(=O)c4ccc(OCCN5CCOCC5)cc4)c3)cc21 + O=C(CCCCCCC(=O)Nc1ccccc1)NO [Vorinostat] (partner 1 µM)
In short: as §1

[4] = compound: N=C1NC(=O)/C(=C/c2ccc(O)cc2)S1 [Mirin] + C[C@]1(O)C[C@@H](c2nc(-c3ccc4ccc(-c5ccccc5)nc4c3)c3c(N)nccn32)C1 [Linsitinib] (partner 1 µM)
In short: as §1

ABC-1
relative viability ([1]; first compound 0.04 µM): 0.647 | relative viability ([1]; first compound 0.1265 µM): 0.941 | relative viability ([1]; first compound 0.4 µM): 0.635 | relative viability ([1]; first compound 1.265 µM): 0.332 | relative viability ([1]; first compound 4 µM): 0.393 | relative viability ([2]; first compound 0.04 µM): 1.15 | relative viability ([2]; first compound 0.1265 µM): 0.906 | relative viability ([2]; first compound 0.4 µM): 0.687 | relative viability ([2]; first compound 1.265 µM): 0.574 | relative viability ([2]; first compound 4 µM): 0.5 | relative viability ([3]; first compound 0.04 µM): 1.25 | relative viability ([3]; first compound 0.1265 µM): 0.8 | relative viability ([3]; first compound 0.4 µM): 0.822 | relative viability ([3]; first compound 1.265 µM): 0.32 | relative viability ([3]; first compound 4 µM): 0.665 | relative viability ([4]; first compound 0.25 µM): 0.771 | relative viability ([4]; first compound 0.7906 µM): 0.93 | relative viability ([4]; first compound 2.5 µM): 0.773 | relative viability ([4]; first compound 7.906 µM): 1.04 | relative viability ([4]; first compound 25 µM): 0.455

IA-LM
relative viability ([2]; first compound 0.04 µM): 0.95 | relative viability ([2]; first compound 0.1265 µM): 0.8 | relative viability ([2]; first compound 0.4 µM): 0.658 | relative viability ([2]; first compound 1.265 µM): 0.54 | relative viability ([2]; first compound 4 µM): 0.681 | relative viability ([3]; first compound 0.04 µM): 1.08 | relative viability ([3]; first compound 0.1265 µM): 0.997 | relative viability ([3]; first compound 0.4 µM): 1.03 | relative viability ([3]; first compound 1.265 µM): 0.998 | relative viability ([3]; first compound 4 µM): 1.39 | relative viability ([4]; first compound 0.25 µM): 0.754 | relative viability ([4]; first compound 0.7906 µM): 0.584 | relative viability ([4]; first compound 2.5 µM): 0.789 | relative viability ([4]; first compound 25 µM): 0.87

NCI-H441
relative viability ([1]; first compound 0.04 µM): 0.26 | relative viability ([1]; first compound 0.1265 µM): 0.234 | relative viability ([1]; first compound 0.4 µM): 0.157 | relative viability ([1]; first compound 1.265 µM): 0.226 | relative viability ([1]; first compound 4 µM): 0.25 | relative viability ([2]; first compound 0.04 µM): 0.545 | relative viability ([2]; first compound 0.1265 µM): 0.766 | relative viability ([2]; first compound 0.4 µM): 0.635 | relative viability ([2]; first compound 1.265 µM): 0.566 | relative viability ([2]; first compound 4 µM): 0.465 | relative viability ([3]; first compound 0.04 µM): 1.04 | relative viability ([3]; first compound 0.1265 µM): 0.705 | relative viability ([3]; first compound 0.4 µM): 0.87 | relative viability ([3]; first compound 1.265 µM): 0.502 | relative viability ([3]; first compound 4 µM): 0.47 | relative viability ([4]; first compound 0.25 µM): 0.503 | relative viability ([4]; first compound 0.7906 µM): 0.493 | relative viability ([4]; first compound 2.5 µM): 0.599 | relative viability ([4]; first compound 7.906 µM): 0.45 | relative viability ([4]; first compound 25 µM): 0.48

NCI-H1792
relative viability ([1]; first compound 0.04 µM): 0.694 | relative viability ([1]; first compound 0.1265 µM): 0.583 | relative viability ([1]; first compound 1.265 µM): 0.542 | relative viability ([1]; first compound 4 µM): 0.582 | relative viability ([2]; first compound 0.04 µM): 0.65 | relative viability ([2]; first compound 0.1265 µM): 0.572 | relative viability ([2]; first compound 1.265 µM): 0.423 | relative viability ([2]; first compound 4 µM): 0.512 | relative viability ([4]; first compound 0.25 µM): 0.597 | relative viability ([4]; first compound 0.7906 µM): 0.592 | relative viability ([4]; first compound 2.5 µM): 0.617 | relative viability ([4]; first compound 7.906 µM): 0.505 | relative viability ([4]; first compound 25 µM): 0.589

LXF-289
relative viability ([1]; first compound 0.04 µM): 0.67 | relative viability ([1]; first compound 0.1265 µM): 0.654 | relative viability ([1]; first compound 0.4 µM): 0.6 | relative viability ([1]; first compound 1.265 µM): 0.585 | relative viability ([1]; first compound 4 µM): 0.548 | relative viability ([2]; first compound 0.04 µM): 1.08 | relative viability ([2]; first compound 0.1265 µM): 1.06 | relative viability ([2]; first compound 0.4 µM): 0.955 | relative viability ([2]; first compound 1.265 µM): 0.978 | relative viability ([2]; first compound 4 µM): 0.973 | relative viability ([3]; first compound 0.04 µM): 0.862 | relative viability ([3]; first compound 0.1265 µM): 0.886 | relative viability ([3]; first compound 0.4 µM): 0.79 | relative viability ([3]; first compound 1.265 µM): 0.777 | relative viability ([3]; first compound 4 µM): 0.604 | relative viability ([4]; first compound 0.25 µM): 0.971 | relative viability ([4]; first compound 0.7906 µM): 1.09 | relative viability ([4]; first compound 2.5 µM): 1 | relative viability ([4]; first compound 7.906 µM): 1.03 | relative viability ([4]; first compound 25 µM): 1.02

HCC-827
relative viability ([1]; first compound 0.04 µM): 0.49 | relative viability ([1]; first compound 0.1265 µM): 0.541 | relative viability ([1]; first compound 0.4 µM): 0.501 | relative viability ([1]; first compound 1.265 µM): 0.455 | relative viability ([1]; first compound 4 µM): 0.481 | relative viability ([2]; first compound 0.04 µM): 0.974 | relative viability ([2]; first compound 0.1265 µM): 0.907 | relative viability ([2]; first compound 0.4 µM): 0.94 | relative viability ([2]; first compound 1.265 µM): 0.992 | relative viability ([2]; first compound 4 µM): 0.823 | relative viability ([3]; first compound 0.04 µM): 0.92 | relative viability ([3]; first compound 0.1265 µM): 0.881 | relative viability ([3]; first compound 0.4 µM): 0.806 | relative viability ([3]; first compound 1.265 µM): 0.525 | relative viability ([3]; first compound 4 µM): 0.701 | relative viability ([4]; first compound 0.25 µM): 0.959 | relative viability ([4]; first compound 0.7906 µM): 0.972 | relative viability ([4]; first compound 2.5 µM): 0.949 | relative viability ([4]; first compound 7.906 µM): 0.935 | relative viability ([4]; first compound 25 µM): 1.18

EMC-BAC-2
relative viability ([1]; first compound 0.04 µM): 0.517 | relative viability ([1]; first compound 0.1265 µM): 0.458 | relative viability ([1]; first compound 0.4 µM): 0.397 | relative viability ([1]; first compound 1.265 µM): 0.369 | relative viability ([1]; first compound 4 µM): 0.389 | relative viability ([2]; first compound 0.04 µM): 1.03 | relative viability ([2]; first compound 0.1265 µM): 0.839 | relative viability ([2]; first compound 0.4 µM): 0.814 | relative viability ([2]; first compound 1.265 µM): 0.834 | relative viability ([2]; first compound 4 µM): 0.877 | relative viability ([3]; first compound 0.04 µM): 0.438 | relative viability ([3]; first compound 0.1265 µM): 0.297 | relative viability ([3]; first compound 0.4 µM): 0.159 | relative viability ([3]; first compound 1.265 µM): 0.147 | relative viability ([3]; first compound 4 µM): 0.167 | relative viability ([4]; first compound 0.25 µM): 0.793 | relative viability ([4]; first compound 0.7906 µM): 0.825 | relative viability ([4]; first compound 2.5 µM): 0.883 | relative viability ([4]; first compound 7.906 µM): 0.853 | relative viability ([4]; first compound 25 µM): 0.815

NCI-H596
relative viability ([2]; first compound 0.04 µM): 1.05 | relative viability ([2]; first compound 0.1265 µM): 1.13 | relative viability ([2]; first compound 0.4 µM): 1.16 | relative viability ([2]; first compound 1.265 µM): 0.931 | relative viability ([2]; first compound 4 µM): 1.14 | relative viability ([3]; first compound 0.04 µM): 0.598 | relative viability ([3]; first compound 0.1265 µM): 0.531 | relative viability ([3]; first compound 0.4 µM): 0.617 | relative viability ([3]; first compound 1.265 µM): 0.468 | relative viability ([3]; first compound 4 µM): 0.604 | relative viability ([4]; first compound 0.25 µM): 0.975 | relative viability ([4]; first compound 0.7906 µM): 0.919 | relative viability ([4]; first compound 2.5 µM): 1.03 | relative viability ([4]; first compound 7.906 µM): 1.11 | relative viability ([4]; first compound 25 µM): 0.902

NCI-H1755
relative viability ([1]; first compound 0.04 µM): 0.457 | relative viability ([1]; first compound 0.1265 µM): 0.46 | relative viability ([1]; first compound 0.4 µM): 0.397 | relative viability ([1]; first compound 1.265 µM): 0.454 | relative viability ([1]; first compound 4 µM): 0.424 | relative viability ([2]; first compound 0.04 µM): 1.08 | relative viability ([2]; first compound 0.1265 µM): 1.01 | relative viability ([2]; first compound 0.4 µM): 0.936 | relative viability ([2]; first compound 1.265 µM): 0.963 | relative viability ([2]; first compound 4 µM): 0.937 | relative viability ([3]; first compound 0.04 µM): 0.843 | relative viability ([3]; first compound 0.1265 µM): 0.796 | relative viability ([3]; first compound 0.4 µM): 0.615 | relative viability ([3]; first compound 1.265 µM): 0.577 | relative viability ([3]; first compound 4 µM): 0.506 | relative viability ([4]; first compound 0.25 µM): 1.03 | relative viability ([4]; first compound 0.7906 µM): 1.12 | relative viability ([4]; first compound 2.5 µM): 1.01 | relative viability ([4]; first compound 7.906 µM): 1.06 | relative viability ([4]; first compound 25 µM): 1.1

Source: the supplement of paper PMC10307832
